Source: patent publication US20130184246A1, “METHOD FOR TREATING FATTY LIVER DISEASES, IN PARTICULAR NON-ALCOHOLIC STEATOHEPATITIS” (priority 2010, published 2013)

Experiments:
LDLr−/− mice [1] = assay: Plasma lipid analysis, NASH treatment with 27-HC; assay type: in vivo
Description: (§1) The experimental approach consisted of utilizing low-density (LDL) receptor-deficient mice (LDLr−/−) on a C57B16 background. This mouse model is predisposed to elevated serum cholesterol levels when fed a high-fat diet. On a normal chow diet, these mice have a three-fold increase in cholesterol levels when compared to controls.^(39) The lab determined that two weeks is sufficient for mice to reach a steatotic and inflamed liver state.
Experiments were performed in accordance with Dutch law for animal experimentation and approved by the Committee for Animal Welfare of the University of Maastricht. In this study, the aim was to investigate the ability of 27-hydroxycholesterol (generous gift from Dr. Norman B. Javitt; New York University School of Medicine) to reduce hepatic inflammation and to characterize its potential use as a therapeutic agent for NASH patients. […]
Plasma cholesterol and triglyceride measurements were tested with the enzymatic color tests. […] Absorbance was measured at the 490 nm wavelength with a Benchmark 550 Micro-plate reader. […] Subsequently, 200 μl of reagent A was added, mixed, and after 15 minutes of incubation, read at a wavelength of 545 nm for the initial absorbance. […] The final absorbance was then measured at 545 nm. The concentration of triglycerides was then calculated by subtracting the initial concentrations from the final concentrations. […]

LDLr−/− mice [2] = assay: Liver lipid analysis, NASH treatment with 27-HC; assay type: in vivo
Description: as §1
Experiments were performed in accordance with Dutch law for animal experimentation and approved by the Committee for Animal Welfare of the University of Maastricht. […]
Homogenization of approximately 50 mg of frozen liver tissue was completed at 5000 rpm for 30 seconds with 1.0 mm glass beads along with 1.0 ml SET buffer (sucrose 250 mmol/L, EDTA 2 mmol/L, and Tris 10 mmol/L). […] After adding 200 μl of the reagents (50 parts A, 1 part B) and letting the mixture stand for 30 minutes at 37° C., the absorbance was measured utilizing the enzymatic color test bicinchoninic acid (BCA) method (Pierce, Rockford, Ill.) at a wavelength of 560 nm with a Benchmark 550 Micro-plate reader (170-6750XTU; Bio-Rad, Hercules, Calif.). […]

LDLr−/− mice [3] = assay: Steatosis scoring by HE and oil red O staining of liver sections; assay type: in vivo; conditions: high-fat diet 27-HC-treated groups
Description: A total of five different experimental groups, ranging from eigtht to nine mice per group, were used to assess the effects of 27-HC. The 27-HC was dissolved in 2-hydroxypropyl-β-cyclodextrin (Sigma-Aldrich GmbH H5784; St. Louis, Mo.) and injected with a concentration of 40 mg of 27-HC per kilogram of body weight via a subcutaneous injection. Mice in Group A received a chow diet and control injections consisting of 2-hydroxypropyl-β-cyclodextrin dissolved in sodium chloride. Group B mice were also on the chow diet but are given daily subcutaneous injections of 27-HC. Group C were the mice that received the high-fat diet (21% fat; 0.2% cholesterol) and control injections. To differentiate between a therapeutic and a regression effect of the 27-HC, the following two groups were set up: a high-fat diet with daily 27-HC injections (Group D) and a high-fat diet group with two weeks of control injections followed by a week of 27-HC injections (Group E). Mice were housed under standard conditions with food and water available ad libidum. […]
Stained sections were scored in a blind manner by a specialized animal pathologist. […] Sections were scored for the quantity of fat droplets and for the foamy appearance of Kupffer cells. […]
To verify the quantification of fat, 7 μm thick frozen sections were stained with oil red O (ORO; O0725; Sigma-Aldrich), the neutral lipid marker. […]

LDLr−/− mice [4] = assay: Hepatic inflammation: immunohistochemical staining for infiltrated macrophages (MAC1) and neutrophils (NIMP); assay type: in vivo; conditions: vs Group C; for Infiltrated macrophages (MAC1 staining): FIG. 3A
Description: A total of five different experimental groups, ranging from eigtht to nine mice per group, were used to assess the effects of 27-HC. The 27-HC was dissolved in 2-hydroxypropyl-β-cyclodextrin (Sigma-Aldrich GmbH H5784; St. Louis, Mo.) and injected with a concentration of 40 mg of 27-HC per kilogram of body weight via a subcutaneous injection. Mice in Group A received a chow diet and control injections consisting of 2-hydroxypropyl-β-cyclodextrin dissolved in sodium chloride. Group B mice were also on the chow diet but are given daily subcutaneous injections of 27-HC. Group C were the mice that received the high-fat diet (21% fat; 0.2% cholesterol) and control injections. To differentiate between a therapeutic and a regression effect of the 27-HC, the following two groups were set up: a high-fat diet with daily 27-HC injections (Group D) and a high-fat diet group with two weeks of control injections followed by a week of 27-HC injections (Group E). Mice were housed under standard conditions with food and water available ad libidum.
One day previous to the start of the experiment, the mice were weighed and 100-200 μl of blood were collected in a capillary tube after four hours of fasting via an incision in the tail vein. On day 0, the feeding of specialized diets and injections began according to each group. On the 21st day after the start of the experiment, the animals were weighed and fasted for four hours and had another 100-200 μl of blood drawn and collected in a capillary tube via an incision in the tail vein. Afterwards, the mice were sacrificed via cervical dislocation and immediately had their livers removed via a laparotomy consisting of an incision from the pelvis to the rib cage to gain access into the abdomen. […]
Nikon digital camera model DMX1200 and ACT-1 v2.63 software from Nikon Corporation were used to photograph each section. […] The positive cells for each picture were then counted or scored and noted as cells or lipid droplets per square millimeter, respectively.

fibroblasts = assay: Incubation of fibroblasts with 27-HC, endolysosomal cholesterol accumulation; assay type: cell-based
[5] = tested on: hyperlipidemic LDLR knockout mice; assay: HFC diet supplemented with 27-hydroxycholesterol in hyperlipidemic LDLR knockout mice; assay type: in vivo; conditions: HFC diet supplemented with 27-hydroxycholesterol 0.1% w/w for three weeks vs HFC diet
From the text: To determine whether exogenous 27-HC can reduce hepatic inflammation, hyperlipidemic LDLR knockout mice may be fed either chow, HFC diet or HFC diet supplemented with 27-hydroxycholesterol (0.1% w/w) for three weeks. Then, the mice may be sacrificed and detailed characterization of liver and plasma may be performed.

In the case of `C[C@@H](CO)CCC[C@@H](C)[C@H]1CC[C@H]2[C@@H]3CC=C4C[C@@H](O)CC[C@]4(C)[C@H]3CC[C@]12C` [27-HC, 27-hydroxycholesterol], the Plasma cholesterol levels (LDLr−/− mice [1]; 27-HC 40 mg/kg s.c. injected groups vs control-injected groups, 3 weeks, FIG. 2A) is reported as “do not show altered cholesterol levels”, the Plasma triglycerides (LDLr−/− mice [1]; Group D: high-fat diet, daily 27-HC 40 mg/kg s.c. for three weeks, vs Groups C and E, FIG. 2B) is reported as “diminished” and the Liver cholesterol levels (LDLr−/− mice [2]; 27-HC 40 mg/kg s.c. injected groups vs control-injected groups, 3 weeks, FIG. 2C) is reported as “do not show altered cholesterol levels”. The Liver triglycerides (LDLr−/− mice [2]; among high-fat diet groups C-E, FIG. 2D) was “no significant differences”, the “Steatosis score, HE staining” value (LDLr−/− mice [3]; FIG. 2E) was “do not show any statistical significance or trends” and the “Steatosis score, oil Red O staining” value (LDLr−/− mice [3]; FIG. 2F) was “do not show any statistical significance or trends”. For the same compound, the “Infiltrated macrophages (MAC1 staining)” value (LDLr−/− mice [4]; Group D: high-fat diet, daily 27-HC for three weeks) was “significantly decreased”, the “Neutrophils (NIMP staining)” value (LDLr−/− mice [4]; Group D: high-fat diet, daily 27-HC for three weeks, FIG. 3B) was “decreased neutrophils” and the “Infiltrated macrophages (MAC1 staining)” value (LDLr−/− mice [4]; Group E: high-fat diet, two weeks control injections then one week 27-HC) was “significantly decreased”. The Endolysosomal cholesterol accumulation (fibroblasts) was “decrease endolysosomal cholesterol accumulation”, the “Liver and systemic inflammation” value [5] was “reduced liver and systemic inflammation” and the Lysosomal cholesterol accumulation [5] was “less lysosomal cholesterol accumulation”.
